Data: patent publication US20060281695A1, “Control of parasites in animals by N-[(phenyloxy)phenyl]-1,1,1-trifluoromethanesulfonamide and N-[(phenylsulfanyl)phenyl]-1,1,1-trifluoromethanesulfonamide derivatives” (priority 2005, published 2006)

What was measured:
[1] = test system: Brown Dog Tick (Rhipicephalus sanguineus); test: Topical application on brown dog ticks, single dose screen (% mortality at 24 hours); type: in vivo; details: adult brown dog ticks, topical 1 μL in acetone on abdomen, single dose 10 μg per tick
Protocol: d) Topical Application On Brown Dog Ticks (Rhipicephalus sanguineus)
The aim of the test is to determine the presence of significant acaricidal activity in sample compounds or formulations when applied topically on brown dog ticks. A tick is defined as dead if it gives no apparent response when: (i) touched lightly and (ii) then observed for 1 minute. To assess the experimental compound for acaricidal activity, a single dose level is chosen based on known results from previous experiments with a commercially available active reference compound.
In the present example, both permethrin and fipronil were employed as reference compounds. The insect species tested was the Brown Dog Tick (Rhipicephalus sanguineus). Mixed sex adult ticks were used for tests. The strain used was cultured from a field strain and supplied as unfed adult ticks (mixed sex). Ticks were maintained in controlled conditions (temp. 18°±2° C., humidity 75±5% RH).
Test compounds (formulations or active ingredients) were stored in a refrigerator (5±1° C.) unless otherwise specified. The temperature was maintained at 25±1° C. and the humidity was ambient. The screening dose chosen was higher than that known kill 90% of insects (LD90) using the reference compound. In the case of topical application of active compounds on adult ticks, the reference compound was fipronil and the dose chosen was 10 μg of active per tick (=10 μg of fipronil/1 μl of acetone). Ticks were each treated on the abdomen with 1 μL of a single dose level of test sample in acetone; ten ticks were treated with solvent only (acetone) in each test. Tests were replicated 4 times (total of 40 ticks treated). Ticks were held in recovery containers maintained under appropriate rearing conditions for 24 hours. Mortality resulting from the treatments was recorded at 24 hours. Pooled 24 hour mortality data were converted to percentages.
(§1) In Table 7, provided below, are listed the Haemonchus contortus LD99 values (measured in micrograms/mL), the Ctenocephalides felis rapid screening values (measured in % mortality), the Ctenocephalides felis LC50 values (measured in micrograms/cm^2) and the Rhipicephalus sanguineus rapid screening values (measured in % mortality) for selected compounds in accordance with the present invention.

[2] = test system: cat flea (Ctenocephalides felis); test: Ctenocephalides felis adulticide assay: dose response on treated glass surface (LC50, 24 hours); type: in vivo; details: adult cat fleas, 24 h mortality, probit analysis
Protocol: The LC50 value is the concentration, expressed as μg/cm^2, that was required to kill 50% of the sample of cat fleas on contact with the tested compound. Certain tests are also reported as the percent of a sample of cat fleas that were killed at a concentration of 1.26 μg/cm^2 (“% mortality”), for the compounds tested in this way.
c) Ctenocephalides felis Adulticide Assay: C. felis dose response The purpose of this example is to determine the LC50 when cat fleas are contacted with a glass surface treated with sample compounds or formulations prepared as described above. Mortality of fleas is defined as follows: fleas are considered dead if they don't move or are on their sides and unable to walk or right themselves. LC50: Lethal Concentration 50— concentration of glass surface treatment at which 50% of the cat fleas are killed.
The test species employed was the cat flea (Ctenocephalides felis). The strain used was obtained from external suppliers as pupae and held in the laboratory under testing conditions until the adults had emerged. Fifteen (15) fleas were used in a minimum of four replicates for each dose level (total of 60 fleas per dose level). The insects were selected to be in the adult life stage, aged between 3 and 7 days post emergence.
The compounds to be tested were dissolved in acetone just prior to testing. Samples of compounds were stored in a refrigerator (5±1° C.) unless otherwise specified. During the mortality testing, the temperature was maintained at 25±1° C. Humidity was maintained at 75±5%. The base (area=159 mm^2) of a 100 mL glass Erlenmeyer (conical) flask provided the treatment surface. Flasks were pre-treated with Coatasil™ glass treatment to maximise bio-availability of test compounds by preventing them from binding to the glass surface.
Six dose levels (concentrations) of test sample, in the form of a serial dilution, were derived from a pilot study and covered a range that produced very low to very high mortality. The base of the 100 mL Erlenmeyer flask was treated with 0.5 mL of test sample in acetone and gently swirled. This volume was sufficient to cover the base of the flask. Flasks were left to dry for 24 hours before flea exposure. Adult cat fleas were lightly anaesthetised by cooling and then placed into a sorting chamber, which allowed fleas to revive and jump into the Erlenmeyer flasks. Fifteen (15) adult cat fleas were collected in each flask. The top of the flasks were then covered in Parafilm™ and small holes made to allow gas exchange. A 0.5 mL volume of acetone was applied to the base of an Erlenmeyer flask and the testing proceeded in the same manner described above. Cat fleas in the treatment containers were held under testing conditions for 24 hours. Mortality resulting from the treatments was recorded at 24 hours. […] 3rd ed. Cambridge Univ. Press, London (1971)].
as §1

[3] = test system: Haemonchus contortus; test: Haemonchus contortus larvacidal (larval development) assay, LD99; type: in vitro
Protocol: The LD99 value is the dose, expressed as […], that was required to kill 99% of a sample of Haemonchus contortus.
a) Haemonchus Contortus Larvacidal Assay:
The effect of compounds on larval development was determined in the assay described by Gill et al. [International Journal of Parasitology 25:463-470 (1995)]. Briefly, in this assay, nematode eggs are applied to the surface of an agar matrix containing the test compound and then allowed to develop through to the L3, infective stage (6 days). The wells for each dilution of every compound (from highest to lowest concentration) are inspected to determine the well number corresponding to the lowest concentration at which development is inhibited in 99% of the nematode larvae present (LD99). Because well numbers correspond to a two-fold serial dilution of each compound, a titre (dilution factor) is generated as 2^n−1, where n is the well number. By dividing the highest concentration tested by the titre an LD99 value can be obtained, representing the concentration required to inhibit development in 99% of the nematode larvae present. The compounds supplied as solid and viscous liquids are dissolved in DMSO. Twelve serial one-half dilutions in DMSO solution are prepared from the stock solution, each of which is then diluted 1/5 with water. Aliquots (10 μl) of each dilution are transferred to the bioassay plates to give a final concentration range of 0.024 to 50 μg/ml.
as §1

[4] = test system: cat flea (Ctenocephalides felis); test: Ctenocephalides felis adulticide assay: single dose screen on treated glass surface (% mortality at 1.26 μg/cm^2, 24 hours); type: in vivo

## O=S(=O)(Nc1ccc(Cl)cc1Oc1ccccc1C(F)(F)F)C(F)(F)F [Compound 2]
[1]
  Rhipicephalus sanguineus Mortality (%) 24 h: 28%
[2]
  Ctenocephalides felis LC50: 0.19 μg/cm^2
[3]
  Haemonchus contortus LD99: 5.5 µg/mL
[4]; in vivo
  Ctenocephalides felis Mortality (%) 24 h: 100%

## O=S(=O)(Nc1ccc(Cl)cc1Oc1ccc(Cl)cc1Cl)C(F)(F)F [Compound 1, N-[4-Chloro-2-(2,4-dichlorophenoxy)phenyl]-1,1,1-trifluoromethanesulfonamide]
[1]
  Rhipicephalus sanguineus Mortality (%) 24 h: 68%
[2]
  Ctenocephalides felis LC50: 0.32 μg/cm^2
[3]
  Haemonchus contortus LD99: 1.5 µg/mL
[4]; Ctenocephalides felis, 24 h, read-out: Ctenocephalides felis Mortality (%) 24 h
  mortality at 1.26 µg/cm2, 1.26 µg/cm2: 100%
